Results reported in US20260317344A1, “EGFR INHIBITORS FOR TREATING DISEASE” (BLOSSOMHILL THERAPEUTICS, INC., priority 2023, published 2026).

Experiments:
EGFR (D746-750) = EGFR (D746-750) (Homo sapiens, UniProt P00533, DEL746-750); assay: HotSpot radiometric kinase assay, inhibition of EGFR 746-750 mutant; assay type: biochemical; details: 33P ATP, room temperature, 120 m
How it was run: (§1)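 Kinase/substrate pairs in 20 mM HEPES pH 7.5, 10 mM MgCl2, 1 mM EGTA, 0.02% Brij35, 0.02 mg/ml BSA, 0.1 mM Na3VO4, 2 mM DTT, 1% DMSO, preincubated ~20 min with compound. Reaction started with ATP/33P-ATP ([…]), run 120 min at room temperature; phosphorylation read by P81 filter binding, IC50 from curve fits.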

PC-9 cells = assay: 5-Day CellTiter Glo (CTG) cell proliferation assay, PC-9; assay type: cell-based; details: Homo sapiens; PC-9 cells (d746-750 EGFR), 5-day CTG proliferation, 120 hours; read-out: PC-9 IC50
How it was run: (§2)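 Luminescent ATP signal (CellTiter-Glo 2.0) after 120 hours of compound exposure gave IC50 values. PC-9 and HCC827 harbour EGFR d746-750; NCI-H1975 harbours L858R/T790M.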

EGFR (D770_N771insNPG) = EGFR (D770_N771insNPG) (Homo sapiens, UniProt P00533, INS770NPG); assay: HotSpot radiometric kinase assay, inhibition of EGFR (D770_N771insNPG) mutant; assay type: biochemical; details: 33P ATP, room temperature, 120 m
How it was run: as §1

[1] = tested on: BaF3 cells with engineered EGFR L858R/T790M/C797S; assay: 3-Day CellTiter Glo (CTG) cell proliferation assay, BaF3 EGFR L858R/T790M/C797S; assay type: cell-based; details: Mus musculus, 3-day CTG proliferation, 72 hours
How it was run: (§3)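 Luminescent ATP read-out (CellTiter-Glo 2.0) after 72 h compound exposure gives IC50 values. BaF3 transgenic cells, one thousand per well, received a nine-dose series and were kept at 37 °C under 5% CO2.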

EGFR (D746-750/C797S) = EGFR (D746-750/C797S) (Homo sapiens, UniProt P00533, C797S/DEL746-750); assay: HotSpot radiometric kinase assay, inhibition of EGFR 746-750/C797S mutant; assay type: biochemical; details: 33P ATP, room temperature, 120 m
How it was run: as §1

EGFR (L858R/T790M) = EGFR (L858R/T790M) (Homo sapiens, UniProt P00533, L858R/T790M); assay: HotSpot radiometric kinase assay, inhibition of EGFR L858R/T790M mutant; assay type: biochemical; details: 33P ATP, room temperature, 120 m
Description: (§4) Biochemical Assays for inhibition of wild-type and mutant EGFRs
(§5) Briefly, specific kinase/substrate pairs along with required cofactors were prepared in reaction buffer; 20 mM HEPES pH 7.5, 10 mM […], 1 mM EGTA, 0.02% Brij35, 0.02 mg/ml BSA, 0.1 mM Na3VO4, 2 mM DTT, 1% DMSO. Compounds were delivered into the reaction, followed ~20 minutes later by addition of a mixture of ATP (Sigma, St. Louis MO) and ^33P ATP (Perkin Elmer, Waltham MA) to a final concentration of […]. Reactions were carried out at room temperature for 120 m, followed by spotting of the reactions onto P81 ion exchange filter paper (Whatman Inc., Piscataway, NJ). Unbound phosphate was removed by extensive washing of filters in 0.75% phosphoric acid. […] IC50 values and curve fits were obtained using Prism (GraphPad Software).

EGFR WT = EGFR WT (Homo sapiens, UniProt P00533); assay: HotSpot radiometric kinase assay, inhibition of EGFR WT; assay type: biochemical; details: 33P ATP, room temperature, 120 m
Description: as §4, §5

NCI-H1975 cells = assay: 5-Day CellTiter Glo (CTG) cell proliferation assay, NCI-H1975; assay type: cell-based; details: Homo sapiens; NCI-H1975 cells (L858R/T790M EGFR), 5-day CTG proliferation, 120 hours; read-out: H1975 IC50
How it was run: as §2

[2] = molecular target: T1, pEGFR, PC-9 cells (d746-750 EGFR) (Homo sapiens, UniProt P00533, DEL746-750); assay: Cellular EGFR phosphorylation assay (LANCE Ultra TR-FRET) in PC-9 cells; assay type: cell-based; details: 4 hours at 37° C., read-out: PC-9 pEGFR IC50
T1 construct: pEGFR (Tyr1068) TR-FRET
How it was run: (§6)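 4 h compound treatment at 37 °C, 9-point 3-fold titration. EGF (40 ng/mL, final 10 min) in A431 only. Tyr1068 phosphorylation measured by TR-FRET and IC50 fitted.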

EGFR (L858R) = EGFR (L858R) (Homo sapiens, UniProt P00533, L858R); assay: HotSpot radiometric kinase assay, inhibition of EGFR L858R mutant; assay type: biochemical; details: 33P ATP, room temperature, 120 m
Description: as §4, §5

[3] = tested on: BaF3 cells with engineered EGFR L858R/C797S; assay: 3-Day CellTiter Glo (CTG) cell proliferation assay, BaF3 EGFR L858R/C797S; assay type: cell-based; details: Mus musculus, 3-day CTG proliferation, 72 hours
How it was run: as §3

[4] = molecular target: T2, pEGFR, NCI-H1975 cells (L858R/T790M EGFR) (Homo sapiens, UniProt P00533, L858R/T790M); assay: Cellular EGFR phosphorylation assay (LANCE Ultra TR-FRET) in NCI-H1975 cells; assay type: cell-based; details: 4 hours at 37° C., read-out: H1975 pEGFR IC50
T2 construct: pEGFR (Tyr1068) TR-FRET
How it was run: as §6

[5] = tested on: BaF3 cells with engineered EGFR d746-750/T790M; assay: 3-Day CellTiter Glo (CTG) cell proliferation assay, BaF3 EGFR d746-750/T790M; assay type: cell-based; details: Mus musculus; BaF3 EGFR d746-750/T790M cells, 3-day CTG proliferation, 72 hours
How it was run: as §3

EGFR (L858R/T790M/C797S) = EGFR (L858R/T790M/C797S) (Homo sapiens, UniProt P00533, C797S/L858R/T790M); assay: HotSpot radiometric kinase assay, inhibition of EGFR L858R/T790M/C797S mutant; assay type: biochemical; details: 33P ATP, room temperature, 120 m
How it was run: as §1

[6] = molecular target: T3, pEGFR, A431 cells (wildtype EGFR) (Homo sapiens, UniProt P00533); assay: Cellular EGFR phosphorylation assay (LANCE Ultra TR-FRET) in A431 cells; assay type: cell-based; details: 4 hours at 37° C., 40 ng/mL EGF for the final 10 minutes, read-out: A431 pEGFR IC50
T3 construct: pEGFR (Tyr1068) TR-FRET
How it was run: as §6

HCC827 cells = assay: 5-Day CellTiter Glo (CTG) cell proliferation assay, HCC827; assay type: cell-based; details: Homo sapiens; HCC827 cells (d746-750 EGFR), 5-day CTG proliferation, 120 hours; read-out: HCC827 IC50
How it was run: as §2

EGFR (L858R/T790M/C797S), sequence (P00533 25-1210 T790M/C797S/L858R): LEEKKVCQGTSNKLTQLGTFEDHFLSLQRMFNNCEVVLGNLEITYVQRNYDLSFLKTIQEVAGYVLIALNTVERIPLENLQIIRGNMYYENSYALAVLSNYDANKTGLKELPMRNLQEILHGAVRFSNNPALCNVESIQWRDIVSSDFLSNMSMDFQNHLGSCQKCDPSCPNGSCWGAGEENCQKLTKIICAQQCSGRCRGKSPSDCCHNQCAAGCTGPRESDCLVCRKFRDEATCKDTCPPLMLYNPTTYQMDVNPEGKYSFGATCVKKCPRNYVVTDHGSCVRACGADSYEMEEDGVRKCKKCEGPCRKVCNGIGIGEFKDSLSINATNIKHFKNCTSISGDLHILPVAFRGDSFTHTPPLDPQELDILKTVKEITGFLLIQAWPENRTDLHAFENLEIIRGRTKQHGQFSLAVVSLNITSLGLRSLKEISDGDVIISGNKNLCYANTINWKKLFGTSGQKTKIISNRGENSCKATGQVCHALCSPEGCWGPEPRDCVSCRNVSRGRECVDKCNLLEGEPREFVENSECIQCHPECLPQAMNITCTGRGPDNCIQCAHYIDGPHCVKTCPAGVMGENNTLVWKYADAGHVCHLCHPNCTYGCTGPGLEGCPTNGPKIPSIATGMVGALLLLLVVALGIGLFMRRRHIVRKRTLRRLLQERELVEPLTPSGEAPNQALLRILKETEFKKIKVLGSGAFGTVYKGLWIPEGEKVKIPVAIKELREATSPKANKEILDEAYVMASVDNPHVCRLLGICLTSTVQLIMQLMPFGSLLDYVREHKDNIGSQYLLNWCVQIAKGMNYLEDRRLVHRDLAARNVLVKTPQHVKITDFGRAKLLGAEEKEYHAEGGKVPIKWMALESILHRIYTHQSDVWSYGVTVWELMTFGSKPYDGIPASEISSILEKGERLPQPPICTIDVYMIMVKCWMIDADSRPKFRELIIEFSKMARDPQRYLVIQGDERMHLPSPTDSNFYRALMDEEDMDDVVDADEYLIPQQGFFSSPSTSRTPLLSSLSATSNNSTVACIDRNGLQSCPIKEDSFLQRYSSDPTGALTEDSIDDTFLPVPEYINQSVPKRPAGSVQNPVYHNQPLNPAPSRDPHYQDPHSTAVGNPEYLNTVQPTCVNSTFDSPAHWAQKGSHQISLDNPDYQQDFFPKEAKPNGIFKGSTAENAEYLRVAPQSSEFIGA
EGFR (L858R), sequence (P00533 25-1210 L858R): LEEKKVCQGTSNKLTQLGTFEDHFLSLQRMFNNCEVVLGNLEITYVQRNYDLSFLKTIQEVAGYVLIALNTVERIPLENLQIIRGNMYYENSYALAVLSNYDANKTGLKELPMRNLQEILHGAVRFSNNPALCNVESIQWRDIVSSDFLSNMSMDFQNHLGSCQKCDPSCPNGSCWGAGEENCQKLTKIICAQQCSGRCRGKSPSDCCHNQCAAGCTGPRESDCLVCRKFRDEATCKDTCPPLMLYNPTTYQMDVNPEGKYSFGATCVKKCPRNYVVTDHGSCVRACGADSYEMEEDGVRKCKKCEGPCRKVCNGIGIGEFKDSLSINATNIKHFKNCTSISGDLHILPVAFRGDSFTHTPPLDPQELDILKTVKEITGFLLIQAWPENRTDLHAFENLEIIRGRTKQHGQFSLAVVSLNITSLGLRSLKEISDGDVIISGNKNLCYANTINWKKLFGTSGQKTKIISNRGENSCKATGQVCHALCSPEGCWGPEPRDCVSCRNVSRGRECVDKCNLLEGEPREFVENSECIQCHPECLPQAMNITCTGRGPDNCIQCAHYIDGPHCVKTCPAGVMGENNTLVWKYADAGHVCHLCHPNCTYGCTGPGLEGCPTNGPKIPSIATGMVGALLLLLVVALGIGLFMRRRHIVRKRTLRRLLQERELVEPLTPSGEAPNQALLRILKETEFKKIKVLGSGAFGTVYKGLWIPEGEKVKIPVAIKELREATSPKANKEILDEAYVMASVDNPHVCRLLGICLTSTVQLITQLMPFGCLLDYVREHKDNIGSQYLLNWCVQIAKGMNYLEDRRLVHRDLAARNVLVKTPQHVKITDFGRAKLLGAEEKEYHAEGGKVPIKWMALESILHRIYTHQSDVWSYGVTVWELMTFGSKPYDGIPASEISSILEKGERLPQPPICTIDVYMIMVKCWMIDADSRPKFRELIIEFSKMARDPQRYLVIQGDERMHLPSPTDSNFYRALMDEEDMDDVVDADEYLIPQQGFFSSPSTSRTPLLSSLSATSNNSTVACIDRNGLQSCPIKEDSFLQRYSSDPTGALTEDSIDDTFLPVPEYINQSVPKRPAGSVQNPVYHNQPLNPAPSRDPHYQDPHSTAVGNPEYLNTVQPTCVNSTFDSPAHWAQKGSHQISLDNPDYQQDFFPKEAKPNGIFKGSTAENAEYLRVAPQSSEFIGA
EGFR (L858R/T790M), sequence (P00533 25-1210 T790M/L858R): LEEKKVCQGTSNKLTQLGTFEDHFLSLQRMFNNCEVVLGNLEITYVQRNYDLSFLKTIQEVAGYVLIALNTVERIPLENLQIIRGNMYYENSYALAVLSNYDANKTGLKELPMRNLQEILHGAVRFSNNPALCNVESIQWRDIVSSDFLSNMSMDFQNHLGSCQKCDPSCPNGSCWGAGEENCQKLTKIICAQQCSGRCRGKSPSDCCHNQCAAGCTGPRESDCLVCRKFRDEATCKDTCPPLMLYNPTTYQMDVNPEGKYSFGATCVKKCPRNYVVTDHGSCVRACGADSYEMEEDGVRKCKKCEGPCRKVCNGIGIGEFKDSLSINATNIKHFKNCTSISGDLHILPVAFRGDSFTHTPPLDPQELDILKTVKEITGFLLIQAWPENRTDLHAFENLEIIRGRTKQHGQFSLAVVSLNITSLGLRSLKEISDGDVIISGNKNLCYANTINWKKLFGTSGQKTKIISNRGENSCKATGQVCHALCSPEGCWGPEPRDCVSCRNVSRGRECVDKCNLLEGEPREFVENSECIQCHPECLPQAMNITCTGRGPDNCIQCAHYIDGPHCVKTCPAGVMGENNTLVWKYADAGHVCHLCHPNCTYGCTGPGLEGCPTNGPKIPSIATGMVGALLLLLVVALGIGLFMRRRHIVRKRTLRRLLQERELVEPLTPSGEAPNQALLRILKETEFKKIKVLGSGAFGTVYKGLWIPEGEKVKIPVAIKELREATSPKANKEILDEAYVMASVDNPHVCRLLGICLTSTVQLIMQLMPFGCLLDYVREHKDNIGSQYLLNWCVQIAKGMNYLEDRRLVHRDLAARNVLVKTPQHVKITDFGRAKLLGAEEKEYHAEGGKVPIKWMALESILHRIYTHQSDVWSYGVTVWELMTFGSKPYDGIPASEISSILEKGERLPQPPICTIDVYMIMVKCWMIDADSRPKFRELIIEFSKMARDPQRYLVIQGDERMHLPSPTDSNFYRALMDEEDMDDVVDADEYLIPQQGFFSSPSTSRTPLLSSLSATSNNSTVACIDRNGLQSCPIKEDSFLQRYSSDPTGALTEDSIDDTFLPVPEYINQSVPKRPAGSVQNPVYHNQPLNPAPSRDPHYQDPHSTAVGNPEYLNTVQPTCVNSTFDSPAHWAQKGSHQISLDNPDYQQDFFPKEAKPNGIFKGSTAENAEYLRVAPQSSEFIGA
T2 sequence (P00533 25-1210 T790M/L858R): as above

Structure (SMILES) | IC50 (EGFR (D746-750)) [nM] | IC50 (PC-9 cells) [nM] | IC50 (EGFR (D770_N771insNPG)) [nM] | IC50 [1] [nM] | IC50 (EGFR (D746-750/C797S)) [nM] | IC50 (EGFR (L858R/T790M)) [nM] | IC50 (EGFR WT) [nM] | IC50 (NCI-H1975 cells) [nM] | IC50 [2] [nM] | IC50 (EGFR (L858R)) [nM] | IC50 [3] [nM] | IC50 [4] [nM] | IC50 [5] [nM] | IC50 (EGFR (L858R/T790M/C797S)) [nM] | IC50 [6] [nM] | IC50 (HCC827 cells) [nM]
CCOc1nn(CCO)c2c1/C=C/c1n[nH]c3cnc(cc13)-c1c(C)nn(C)c1O[C@H](C)CN(C(C)C)C2 [Ex. 1, 2-[(10R,17E)-16-ethoxy-6,8,10-trimethyl-12-(propan-2-yl)-2,8,10,11,12,13-hexahydro-14H-5,3-(azenometheno)tripyrazolo[3,4-f:3′,4′-j:4″,3″-n][1,4]oxazacyclopentadecin-14-yl]ethan-1-ol] | 1.24 | 4.66 | 1.51 | 1.57 | 1.54 | 1.84 | 1.13 | 28.6 | 3.09 | 1.11 | 0.41 | 3.01 | 1.7 | 0.99 | 19.1 | 0.68
CC(C)Oc1nn(CCO)c2c1/C=C/c1n[nH]c3cnc(cc13)-c1cnn(C)c1O[C@H](C)CN(C(C)C)C2 [Ex. 3, 2-[(10R,17E)-8,10-dimethyl-12-(propan-2-yl)-16-[(propan-2-yl)oxy]-2,8,10,11,12,13-hexahydro-14H-5,3-(azenometheno)tripyrazolo[3,4-f:3′,4′-j:4″,3″-n][1,4]oxazacyclopentadecin-14-yl]ethan-1-ol] | 1.27 | 55.4 | 3.8 | 1.81 | 1.56 | 1.33 | 1.83 | 29.6 | 14.7 | 1.5 | 1.3 | 6.43 | 4.51 | 0.85 | 36.5 | 4.42
CCOc1nn(CCO)c2c1/C=C/c1n[nH]c3cnc(cc13)-c1c(C)nn(C)c1O[C@@H](C)CN(C(C)C)C2 [Ex. 8, 2-[(10S,17E)-16-ethoxy-6,8,10-trimethyl-12-(propan-2-yl)-2,8,10,11,12,13-hexahydro-14H-5,3-(azenometheno)tripyrazolo[3,4-f:3′,4′-j:4″,3″-n][1,4]oxazacyclopentadecin-14-yl]ethan-1-ol] | 0.55 | 0.36 | 0.32 | 0.81 | 0.37 | 0.7 | 0.15 | 0.92 | 1.05 | 0.35 | 0.1 | 1.54 | 0.44 | 0.48 | 8.1 | 0.11
CCN1Cc2c(c(OC(C)C)nn2CCO)/C=C/c2n[nH]c3cnc(cc23)-c2cnn(C)c2O[C@H](C)C1 [Ex. 10, 2-[(10R,17E)-12-ethyl-8,10-dimethyl-16-[(propan-2-yl)oxy]-2,8,10,11,12,13-hexahydro-14H-5,3-(azenometheno)tripyrazolo[3,4-f:3′,4′-j:4″,3″-n][1,4]oxazacyclopentadecin-14-yl]ethan-1-ol] | 0.64 | – | 0.4 | 1.89 | 0.27 | 0.46 | 0.35 | – | 10.8 | 0.46 | – | 4.82 | 0.69 | 0.51 | 51.9 | –
Cc1nn(CCO)c2c1/C=C/c1n[nH]c3cnc(cc13)-c1c(C)nn(C)c1O[C@H](C)CN(C(C)C)C2 [Ex. 20, 2-[(10R,17E)-6,8,10,16-tetramethyl-12-(propan-2-yl)-2,8,10,11,12,13-hexahydro-14H-5,3-(azenometheno)tripyrazolo[3,4-f:3′,4′-j:4″,3″-n][1,4]oxazacyclopentadecin-14-yl]ethan-1-ol] | 0.27 | 25.2 | 1.48 | 5.29 | 0.98 | 0.81 | 0.71 | 96 | 11.8 | 0.55 | 3.05 | 8.57 | – | 2.57 | 61 | 2.89
Cc1nn(CCO)c2c1/C=C/c1n[nH]c3cnc(cc13)-c1c(C)nn(C)c1O[C@@H](C)CN(C(C)C)C2 [Ex. 21, 2-[(10S,17E)-6,8,10,16-tetramethyl-12-(propan-2-yl)-2,8,10,11,12,13-hexahydro-14H-5,3-(azenometheno)tripyrazolo[3,4-f:3′,4′-j:4″,3″-n][1,4]oxazacyclopentadecin-14-yl]ethan-1-ol] | 0.17 | 0.63 | 0.2 | 0.9 | 0.83 | 0.5 | 0.16 | 5.72 | 1.69 | 0.29 | 0.14 | 2.32 | – | 2.14 | 15.8 | 0.26
